Counter-ions that a name gives are not always drawn. Like-named read-outs stand apart in the source and are kept apart here.
Biological target: human PHD2 (Homo sapiens (Human), UniProt Q9GZT9)
Test: Test 2: human PHD2 inhibitory activity, fluorescence polarization assay of HIF-1α peptide proline hydroxylation
Assay type: biochemical
Conditions: read-out: Percent inhibition (% at 1 μM)
Experimental: (1) Expression and Preparation of Human PHD2
A registered sequence of human PHD2 (NM_022051) was introduced into pcDNA3.1/Hygro(+) vector (Invitrogen), and the sequence was verified. […] The suspension of disrupted cells was centrifuged at 4° C. and 100,000×g for 30 minutes and the supernatant was recovered as a cell lysate.
(2) Measurement of Human PHD2 Inhibitory Activity
The activity of human PHD2 enzyme was measured with a substrate which is a 19-residue partial peptide based on the sequence of HIF-1α; specifically, the hydroxylation of a proline residue in the peptide was measured by FP (Fluorescence Polarization).
A test compound and the substrate solution were preliminarily added onto 384-well plates and reaction was initiated by adding a human PHD2 enzyme solution (40 ng/well). After 20-min incubation at 30° C., an EDTA-containing quench solution was added and the amount of the proline residues hydroxylated via binding to an added HIF—OH antibody solution was quantified by fluorescence polarization.
The fluorescence polarization of each well was measured and the human PHD2 inhibitory activity of each test compound was calculated on the basis of the values for the test compound-free group.

[1] = test compound's concentration 1 μM, Test 2, fluorescence polarization assay

Chain of human PHD2 (Q9GZT9 whole entry): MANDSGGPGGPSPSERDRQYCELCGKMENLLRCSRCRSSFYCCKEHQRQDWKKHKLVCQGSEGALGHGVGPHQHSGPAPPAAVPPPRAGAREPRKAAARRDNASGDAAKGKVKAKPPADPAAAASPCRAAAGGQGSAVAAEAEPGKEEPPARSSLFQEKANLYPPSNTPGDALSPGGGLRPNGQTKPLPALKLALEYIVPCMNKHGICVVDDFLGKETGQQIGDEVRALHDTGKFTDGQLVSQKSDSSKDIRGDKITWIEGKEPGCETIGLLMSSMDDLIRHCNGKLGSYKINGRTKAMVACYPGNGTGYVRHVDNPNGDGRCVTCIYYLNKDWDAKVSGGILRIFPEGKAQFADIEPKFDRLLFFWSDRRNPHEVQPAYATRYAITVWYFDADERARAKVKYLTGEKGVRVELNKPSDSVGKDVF

| Compound | inhibition at 1 µM [1] [%] | inhibition at 1 µM [%] |
| --- | --- | --- |
| O=C(O)CNC(=O)C1=C(O)CCN(Cc2ccc(C3CCCCC3)c(F)c2)C1=O [Ex. 1-453] | 94 |  |
| O=C(O)CNC(=O)C1=C(O)CCN(C[C@H]2C[C@H](Oc3ccc(Cl)cc3)C2)C1=O [Ex. 1-454] | 95 |  |
| O=C(O)CNC(=O)C1=C(O)CCN(C[C@H]2C[C@@H](Oc3ccc(Cl)cc3)C2)C1=O [Ex. 1-456] | 98 |  |
| O=C(O)CNC(=O)C1=C(O)CCN(C[C@H]2C[C@H](OCc3ccc(Cl)cc3)C2)C1=O [Ex. 1-457] | 94 |  |
| Cc1ccc(O[C@H]2C[C@H](CN3CCC(O)=C(C(=O)NCC(=O)O)C3=O)C2)cc1 [Ex. 1-458] | 89 |  |
| O=C(O)CNC(=O)C1=C(O)CCN(C[C@H]2C[C@H](Oc3ccc(C(F)(F)F)cc3)C2)C1=O [Ex. 1-459] | 96 |  |
| O=C(O)CNC(=O)C1=C(O)CCN(C[C@H]2C[C@H](Oc3cccc(Cl)c3)C2)C1=O [Ex. 1-460] | 92 |  |
| O=C(O)CNC(=O)C1=C(O)CCN(Cc2ccc(OCn3nnc4ccccc43)cc2)C1=O [Ex. 1-461] | 95 |  |
| Cc1cc(C)n(COc2ccc(CN3CCC(O)=C(C(=O)NCC(=O)O)C3=O)cc2)n1 [Ex. 1-462] | 87 |  |
| Cn1nc2ccccc2c1COc1ccc(CN2CCC(O)=C(C(=O)NCC(=O)O)C2=O)cc1 [Ex. 1-463] | 99 |  |
| O=C(O)CNC(=O)C1=C(O)CCN(C[C@H]2CC[C@H](OCc3ccc(Cl)cn3)CC2)C1=O [Ex. 1-464] | 87 |  |
| O=C(O)CNC(=O)C1=C(O)CC(CO)(CCl)N(Cc2ccc(-c3ccccc3)cc2)C1=O (stereo not drawn) [Ex. 1-465, N-{[1-(4-Biphenylylmethyl)-6-(chloromethyl)-4-hydroxy-6-(hydroxymethyl)-2-oxo-1,2,5,6-tetrahydro-3-pyridinyl]carbonyl}glycine] | 80 |  |
| O=C(O)CNC(=O)C1=C(O)CCN(Cc2ccc(O)c(Cl)c2)C1=O [Ex. 1-466, N-{[1-(3-Chloro-4-hydroxybenzyl)-4-hydroxy-2-oxo-1,2,5,6-tetrahydro-3-pyridinyl]carbonyl}glycine disodium] | 77 |  |
| O=C(O)CNC(=O)C1=C(O)CCN(Cc2ccc(C3=CCC(F)(F)CC3)cc2)C1=O [Ex. 1-467, N-({1-[4-(4,4-difluoro-1-cyclohexen-1-yl)benzyl]-4-hydroxy-2-oxo-1,2,5,6-tetrahydro-3-pyridinyl}carbonyl)glycine sodium salt] |  | 95 |
| Cc1cc(CN2CCC(O)=C(C(=O)NCC(=O)O)C2=O)ccc1OCC1CC1 [Ex. 1-468, N-({1-[4-(Cyclopropylmethoxy)-3-methylbenzyl]-4-hydroxy-2-oxo-1,2,5,6-tetrahydro-3-pyridinyl}carbonyl)glycine sodium salt] |  | 85 |
| COc1cnccc1-c1ccc(CN2CCC(O)=C(C(=O)NCC(=O)O)C2=O)cc1 [Ex. 2-2, N-({4-Hydroxy-1-[4-(3-methoxy-4-pyridinyl)benzyl]-2-oxo-1,2,5,6-tetrahydro-3-pyridinyl}carbonyl)glycine sodium salt] | 98 |  |
| COc1ncccc1-c1ccc(CN2CCC(O)=C(C(=O)NCC(=O)O)C2=O)cc1 [Ex. 2-3, N-({4-Hydroxy-1-[4-(2-methoxy-3-pyridinyl)benzyl]-2-oxo-1,2,5,6-tetrahydro-3-pyridinyl}carbonyl)glycine sodium salt] | 92 |  |
| Cc1ccc(-c2ccc(CN3CCC(O)=C(C(=O)NCC(=O)O)C3=O)cc2)cn1 [Ex. 2-4, N-({4-Hydroxy-1-[4-(6-methyl-3-pyridinyl)benzyl]-2-oxo-1,2,5,6-tetrahydro-3-pyridinyl}carbonyl)glycine sodium salt] |  | 88 |
| Cc1ccc(-c2ccc(CN3CCC(O)=C(C(=O)NCC(=O)O)C3=O)cc2)nc1 [Ex. 2-5, N-({4-Hydroxy-1-[4-(5-methyl-2-pyridinyl)benzyl]-2-oxo-1,2,5,6-tetrahydro-3-pyridinyl}carbonyl)glycine sodium salt] |  | 97 |

| Compound | inhibition at 1 µM [1] [%] | inhibition at 1 µM [%] |
| --- | --- | --- |
| CS(=O)(=O)c1ccc(-c2ccc(CN3CCC(O)=C(C(=O)NCC(=O)O)C3=O)cc2)cc1 [Ex. 2-31] | 93 |  |
| CN(C)C(=O)c1ccc(-c2ccc(CN3CCC(O)=C(C(=O)NCC(=O)O)C3=O)cc2)cc1 [Ex. 2-32] | 85 |  |
| O=C(O)CNC(=O)C1=C(O)C2(CCCCC2)N(Cc2ccc(-c3ccc(Cl)cc3)cc2)C1=O [Ex. 2-33] | 91 |  |
| O=C(O)CNC(=O)C1=C(O)CCN(Cc2ccc(-c3ccc(C(=O)O)cc3)cc2)C1=O [Ex. 2-34] | 97 |  |
| COc1ccc(-c2ccc(CN3CCC(O)=C(C(=O)NCC(=O)O)C3=O)cn2)cc1 [Ex. 2-35] | 96 |  |
| O=C(O)CNC(=O)C1=C(O)CCN(Cc2ccc(-c3ccc(OC(F)(F)F)cc3)nc2)C1=O [Ex. 2-36] | 95 |  |
| O=C(O)CNC(=O)C1=C(O)CCN(Cc2ccc(-c3ccc(F)cc3)nc2)C1=O [Ex. 2-37] | 91 |  |
| COc1ccc(-c2ccc(CN3CCC(O)=C(C(=O)NCC(=O)O)C3=O)nc2)cc1 [Ex. 2-38] | 92 |  |
| O=C(O)CNC(=O)C1=C(O)CCN(Cc2ccc(-c3ccc(OC(F)(F)F)cc3)cn2)C1=O [Ex. 2-39] | 93 |  |
| O=C(O)CNC(=O)C1=C(O)CCN(Cc2ccc(-c3ccc(C(F)(F)F)cc3)cn2)C1=O [Ex. 2-40] | 96 |  |
| COc1cc(-c2ccc(CN3CCC(O)=C(C(=O)NCC(=O)O)C3=O)cc2)ccn1 [Ex. 2-41] | 93 |  |
| COc1ncc(-c2ccc(CN3CCC(O)=C(C(=O)NCC(=O)O)C3=O)cc2)s1 [Ex. 2-42] | 96 |  |
| O=C(O)CNC(=O)C1=C(O)CCN(Cc2ccc(-c3cnc(O)s3)cc2)C1=O [Ex. 2-43] | 95 |  |
| Cc1ccc(-c2ccc(CN3CCC(O)=C(C(=O)NCC(=O)O)C3=O)nc2)cc1 [Ex. 2-44] | 96 |  |
| Cc1ccc(-c2ccc(CN3CCC(O)=C(C(=O)NCC(=O)O)C3=O)cn2)cc1 [Ex. 2-45] | 95 |  |
| O=C(O)CNC(=O)C1=C(O)CCN(Cc2ccc(-c3ccc(Cl)cc3)nc2)C1=O [Ex. 2-46] | 93 |  |
| Cc1ccc(-c2ccc(CN3CCC(O)=C(C(=O)NCC(=O)O)C3=O)cc2)s1 [Ex. 2-47] | 100 |  |
| O=C(O)CNC(=O)C1=C(O)CCN(Cc2ccc(-c3ccc(C4CC4)cc3)nc2)C1=O [Ex. 2-48] | 103 |  |
| O=C(O)CNC(=O)C1=C(O)CCN(Cc2ccc(-c3ccc(C4CC4)cc3)cc2)C1=O [Ex. 2-49] | 93 |  |

| Compound | inhibition at 1 µM [1] [%] | inhibition at 1 µM [%] |
| --- | --- | --- |
| O=C(O)CNC(=O)C1=C(O)CCN(Cc2ccc(-c3ccc(C4CC4)cc3)cn2)C1=O [Ex. 2-50] | 99 |  |
| COc1cccc(-c2ccc(CN3CCC(O)=C(C(=O)NCC(=O)O)C3=O)cn2)c1 [Ex. 2-51] | 97 |  |
| COc1ccccc1-c1ccc(CN2CCC(O)=C(C(=O)NCC(=O)O)C2=O)cn1 [Ex. 2-52] | 95 |  |
| COc1cncc(-c2ccc(CN3CCC(O)=C(C(=O)NCC(=O)O)C3=O)cc2)c1 [Ex. 2-53] | 97 |  |
| COc1ccncc1-c1ccc(CN2CCC(O)=C(C(=O)NCC(=O)O)C2=O)cc1 [Ex. 2-54] | 87 |  |
| NS(=O)(=O)c1ccc(-c2ccc(CN3CCC(O)=C(C(=O)NCC(=O)O)C3=O)cc2)cc1 [Ex. 2-55, N-({4-Hydroxy-2-oxo-1-[(4′-sulfamoyl-4-biphenylyl)methyl]-1,2,5,6-tetrahydro-3-pyridinyl}carbonyl)glycine] | 97 |  |
| CS(=O)(=O)c1ccc(-c2ccc(CN3CCC(O)=C(C(=O)NCC(=O)O)C3=O)cc2)cn1 [Ex. 2-56] | 92 |  |
| O=C(O)CNC(=O)C1=C(O)CCN(Cc2ccc(-c3ccc(S(=O)(=O)NCCO)cc3)cc2)C1=O [Ex. 2-57] | 94 |  |
| O=C(O)CNC(=O)C1=C(O)CCN(Cc2ccc(-c3ccc(C(=O)O)nc3)cc2)C1=O [Ex. 2-58] | 92 |  |
| Nc1ccc(-c2ccc(CN3CCC(O)=C(C(=O)NCC(=O)O)C3=O)cc2)cn1 [Ex. 2-59] | 97 |  |
| O=C(O)CNC(=O)C1=C(O)CCN(Cc2ccc(-c3ccc(O)nc3)cc2)C1=O [Ex. 2-60] | 96 |  |
| Nc1ncc(-c2ccc(CN3CCC(O)=C(C(=O)NCC(=O)O)C3=O)cc2)cn1 [Ex. 2-61] | 92 |  |
| O=C(O)CNC(=O)C1=C(O)CCN(Cc2ccc(O)cc2)C1=O [Ex. 4-3, N-{[4-Hydroxy-1-(4-hydroxybenzyl)-2-oxo-1,2,5,6-tetrahydro-3-pyridinyl]carbonyl}glycine] | 72 |  |
| O=C(O)CNC(=O)C1=C(O)C2(CCCC2)N(Cc2ccc(-c3ccccc3)cc2)C1=O [Ex. 6-1, N-{[1-(4-Biphenylylmethyl)-4-hydroxy-2-oxo-1-azaspiro[4.4]non-3-en-3-yl]carbonyl}glycine] | 91 |  |
| C[C@H]1CC(O)=C(C(=O)NCC(=O)O)C(=O)N1Cc1ccc(OCC2CC2)cc1 [Ex. 6-2, N-({(6S)-1-[4-(Cyclopropylmethoxy)benzyl]-4-hydroxy-6-methyl-2-oxo-1,2,5,6-tetrahydro-3-pyridinyl}carbonyl)glycine sodium salt] |  | 77 |
| O=C(O)CNC(=O)C1=C(O)C2(CCC2)N(Cc2ccc(-c3ccccc3)cc2)C1=O [Ex. 6-3] | 96 |  |
| CC1C(O)=C(C(=O)NCCC(=O)O)C(=O)N1Cc1ccc(-c2ccccc2)cc1 (stereo not drawn) [Ex. 6-4] | 10 |  |
| CC1C(O)=C(C(=O)NCC(=O)O)C(=O)N1Cc1ccc(Oc2ccc(C(F)(F)F)cn2)cc1 (stereo not drawn) [Ex. 6-5] | 97 |  |
| CC1(C)C(O)=C(C(=O)NCC(=O)O)C(=O)N1Cc1ccc(Oc2ccc(C(F)(F)F)cn2)cc1 [Ex. 6-6] | 87 |  |
